According to US8907092B2, “Inhibitors of IAP” (Genentech, Inc., priority 2007, dated 2014):
*1 amine or outer side, *2 acyl side, *3 side chain or, on linkers, in order; H or OH if unused. Where a SMILES comes first, the peptide text is derived from it. Bridges are numbered along the chain shown (N, C = ends). Roman numbers before positions name the chains, in order. [ ]: non-standard residue; d: D form. NH(CH2)3(OCH2CH2)2O(CH2)3NH = C(CN[*:1])COCCOCCOCCCN[*:2]; Dip = N[C@H](C(=O)O)C(c1ccccc1)c1ccccc1; Chg = N[C@H](C(=O)O)C1CCCCC1; NMeA = CN[C@@H](C)C(=O)O; dNMeA = CN[C@H](C)C(=O)O

Target: T1, MLXBIR3SG (Homo sapiens, UniProt Q96CA5, S150G)
T1 sequence (Q96CA5 with tags, fused parts or gaps S150G): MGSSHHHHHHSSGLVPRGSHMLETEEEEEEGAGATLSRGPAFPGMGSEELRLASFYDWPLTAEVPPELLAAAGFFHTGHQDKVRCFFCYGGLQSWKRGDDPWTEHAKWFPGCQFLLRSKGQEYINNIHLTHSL
Assay: Fluorescence Polarization Peptide Binding Assay
Conditions: competition with 5 nM AVP-diPhe-FAM probe, MLXBIR3SG at 30 nM
Procedure: In the following experiments was used a chimeric BIR domain referred to as MLXBIR3SG in which 11 of 110 residues correspond to those found in XIAP-BIR3, while the remainder correspond to ML-IAP-BIR. […] The improved caspase-9 inhibition of the chimeric BIR domain MLXBIR3SG has been correlated with increased inhibition of doxorubicin-induced apoptosis when transfected into MCF7 cells.
Polarization experiments were performed on an Analyst HT 96-384 (Molecular Devices Corp.) according to the procedure of Keating, S. M., Marsters, J, Beresini, M., Ladner, C., Zioncheck, K., Clark, K., Arellano, F., and Bodary., S. (2000) in Proceedings of SPIE: In Vitro Diagnostic Instrumentation (Cohn, G. E., Ed.) pp 128-137, Bellingham, Wash. Samples for fluorescence polarization affinity measurements were prepared by addition of 1:2 serial dilutions starting at a final concentration of 5 μM of MLXBIR3SG in polarization buffer (50 mM Tris [pH 7.2], 120 mM NaCl, 1% bovine globulins 5 mM DTT and 0.05% octylglucoside) to 5-carboxyflourescein-conjugated AVPdi-Phe-NH2 (AVP-diPhe-FAM) at 5 nM final concentration.
The reactions were read after an incubation time of 10 minutes at room temperature with standard cut-off filters for the fluorescein fluorophore (λex=485 nm; λem=530 nm) in 96-well black HE96 plates (Molecular Devices Corp.). Fluorescence values were plotted as a function of the protein concentration, and the IC50s were obtained by fitting the data to a 4-parameter equation using Kaleidograph software (Synergy software, Reading, Pa.). Competition experiments were performed by addition of the MLXBIR3SG at 30 nM to wells containing 5 nM of the AVP-diPhe-FAM probe as well as 1:3 serial dilutions of antagonist compounds starting at a concentration of 300 μM in the polarization buffer. Samples were read after a 10-minute incubation. Fluorescence polarization values were plotted as a function of the antagonist concentration, and the IC50 values were obtained by fitting the data to a 4-parameter equation using Kaleidograph software (Synergy software, Reading, Pa.) Inhibition constants (Ki) for the antagonists were determined from the IC50 values.

**Q.** For CN[C@@H](C)C(=O)N[C@H](C(=O)N1CC(OCc2ccc(C#CC#Cc3ccc(CO[C@H]4C[C@@H](C(=O)Nc5snnc5-c5ccccc5)N(C(=O)[C@@H](NC(=O)[C@H](C)NC)C5CCCCC5)C4)cc3)cc2)C[C@H]1C(=O)Nc1snnc1-c1ccccc1)C1CCCCC1 (stereo partly drawn) [compound 4], which IC50 is on record?
**A.** The IC50 was 2.41 µM.

**Q.** Which IC50 does the source give for CN[C@@H](C)C(=O)N[C@H](C(=O)N1CCC[C@H]1C(=O)N[C@H](C(=O)NCCCOCCOCCOCCCNC(=O)[C@@H](NC(=O)[C@@H]1CCCN1C(=O)[C@@H](NC(=O)[C@@H](C)NC)C1CCCCC1)C(c1ccccc1)c1ccccc1)C(c1ccccc1)c1ccccc1)C1CCCCC1 [compound 10] (I: H-[NMeA][Chg]P[Dip] / II: H-[dNMeA][Chg]P[Dip]; linker I:C-II:C via NH(CH2)3(OCH2CH2)2O(CH2)3NH) here?
**A.** The IC50 was 1.32 µM.

**Q.** With CN[C@@H](C)C(=O)N[C@H](C(=O)N1CCC[C@H]1C(=O)Nc1sc(-c2nccs2)nc1-c1ccccc1)c1ccc(OCC#CC#CCOc2ccc([C@H](NC(=O)[C@H](C)N)C(=O)N3CCC[C@H]3C(=O)Nc3sc(-c4nccs4)nc3-c3ccccc3)cc2)cc1 [compound 11] as the molecule, how does the IC50 read?
**A.** The IC50 was 1.03 µM.

**Q.** How did the IC50 turn out when CN[C@@H](C)C(=O)N[C@H](C(=O)N1CCC[C@H]1C(=O)Nc1sc(-c2nccn2C)nc1-c1ccccc1)c1ccc(OCC#CC#CCOc2ccc([C@H](NC(=O)[C@H](C)NC)C(=O)N3CCC[C@H]3C(=O)Nc3sc(-c4nccn4C)nc3-c3ccccc3)cc2)cc1 [compound 12] was run?
**A.** Its IC50 is 1.1 µM.

**Q.** For CN[C@@H](C)C(=O)N[C@H](C(=O)N1CCC[C@H]1C(=O)Nc1sc(-c2ccccn2)nc1-c1ccccc1)c1ccc(OCC#CC#CCOc2ccc([C@H](NC(=O)[C@H](C)NC)C(=O)N3CCC[C@H]3C(=O)Nc3sc(-c4nccn4C)nc3-c3ccccc3)cc2)cc1 [compound 13], which IC50 is on record?
**A.** Its IC50 is 3.82 µM.

**Q.** How did the IC50 turn out when CN[C@@H](C)C(=O)N[C@H](C(=O)N1CCC[C@H]1C(=O)Nc1sc(-c2ccccn2)nc1-c1ccccc1)c1ccc(OCC#CC#CCOc2ccc([C@H](NC(=O)[C@H](C)NC)C(=O)N3CCC[C@H]3C(=O)Nc3sc(-c4ccccn4)nc3-c3ccccc3)cc2)cc1 [compound 14] was run?
**A.** Its IC50 is 2.35 µM.

**Q.** With CN[C@@H](C)C(=O)N[C@H](C(=O)N1CCC[C@H]1C(=O)Nc1sc(C(=O)NCCCCCCCCCCCNC(=O)c2nc(-c3ccccc3)c(NC(=O)[C@@H]3CCCN3C(=O)[C@@H](NC(=O)[C@H](C)NC)C3CCCCC3)s2)nc1-c1ccccc1)C1CCCCC1 [compound 15] as the molecule, how does the IC50 read?
**A.** The IC50 was 3.83 µM.

**Q.** CN[C@@H](C)C(=O)N[C@H](C(=O)N1CCC[C@H]1C(=O)Nc1sc(C(=O)NCCOCCOCCNC(=O)c2nc(-c3ccccc3)c(NC(=O)[C@@H]3CCCN3C(=O)[C@@H](NC(=O)[C@H](C)NC)C3CCCCC3)s2)nc1-c1ccccc1)C1CCCCC1 [compound 16] was tested. Which IC50 did it give?
**A.** Its IC50 is 0.234 µM.

**Q.** With CN[C@@H](C)C(=O)N[C@H](C(=O)C1CCCN1c1nc2c(-c3ccccc3)nccc2s1)C1CCN(C(=O)NCCCCCCNC(=O)N2CCC([C@H](NC(=O)[C@H](C)NC)C(=O)N3CCC[C@H]3c3nc4c(-c5ccccc5)nccc4s3)CC2)CC1 (stereo partly drawn) [compound 17] as the molecule, how does the IC50 read?
**A.** Its IC50 is 0.168 µM.

**Q.** How did the IC50 turn out when CN[C@@H](C)C(=O)N[C@H](C(=O)N1CCC[C@H]1C(=O)Nc1sc(C(=O)NCC(O)CNC(=O)c2nc(-c3ccccc3)c(NC(=O)[C@@H]3CCCN3C(=O)[C@@H](NC(=O)[C@H](C)NC)C3CCCCC3)s2)nc1-c1ccccc1)C1CCCCC1 [compound 22] was run?
**A.** The IC50 was 0.378 µM.

**Q.** For CN[C@@H](C)C(=O)N[C@H](C(=O)N1CCC[C@H]1C(=O)Nc1sc(C(=O)NCC(C)(C)CNC(=O)c2nc(-c3ccccc3)c(NC(=O)[C@@H]3CCCN3C(=O)[C@@H](NC(=O)[C@H](C)NC)C3CCCCC3)s2)nc1-c1ccccc1)C1CCCCC1 [compound 23], which IC50 is on record?
**A.** The IC50 was 0.679 µM.

**Q.** With CN[C@@H](C)C(=O)N[C@H](C(=O)N1CCC[C@H]1C(=O)Nc1sc(C(=O)NCc2ccc(CNC(=O)c3nc(-c4ccccc4)c(NC(=O)C4CCCN4C(=O)[C@H](NC(=O)[C@@H](C)NC)C4CCCCC4)s3)cc2)nc1-c1ccccc1)C1CCCCC1 (stereo partly drawn) [compound 24] as the molecule, how does the IC50 read?
**A.** The IC50 was 1.38 µM.
